Data on three molecules can be found in ChEMBL document CHEMBL3779783, “Short cationic lipopeptides as effective antibacterial agents: Design, physicochemical properties and biological evaluation” (Bioorg Med Chem, 2016).

The test system of series [1] is Staphylococcus aureus. Kind of series: Antimicrobial activity against vancomycin-resistant Staphylococcus aureus NARSA VRS4 after 20 hrs by microdilution assay. Format: functional. The conditions noted are these: NARSA VRS4, 20 h. For orientation: Dilution methods test growth across graded concentrations, often in twofold steps.
For series [2], the system named is Staphylococcus aureus. The series can be described thus: Antimicrobial activity against vancomycin-resistant Staphylococcus aureus NARSA VRS1 after 20 hrs by microdilution assay. The conditions noted are these: NARSA VRS1, 20 h. The series is classed as functional.
Series [3] relates to Staphylococcus aureus. The series can be described thus: Antimicrobial activity against clinical isolates of multi-resistant/methicillin-resistant Staphylococcus aureus after 20 hrs by microdilution assay. The series is classed as functional.
The next series relates to Pseudomonas aeruginosa. The series can be described thus: Antimicrobial activity against Pseudomonas aeruginosa ATCC 27853 after 20 hrs by microdilution assay. The series is classed as functional. The conditions noted are these: ATCC 27853, 20 h.
A further series has as its system Streptococcus pneumoniae. The series can be described thus: Antimicrobial activity against multidrug resistant Streptococcus pneumoniae ATCC 700677 after 20 hrs by microdilution assay. The series is classed as functional. The settings on record: ATCC 700677, 20 h.
The next series deals with Enterococcus faecium. Kind of series: Antimicrobial activity against multidrug resistant and high level vancomycin resistant Enterococcus faecium ATCC 51559 after 20 hrs by microdilution assay. The series is classed as functional. The conditions noted are these: ATCC 51559, 20 h.
Series [4] has as its system Klebsiella pneumoniae. Kind of series: Antimicrobial activity against NDM-1 positive Klebsiella pneumoniae BAA-2146 after 20 hrs by microdilution assay. The series is classed as functional. The settings on record: ATCC BAA-2146, 20 h.
The test system of a further series is Escherichia coli. The series can be described thus: Antimicrobial activity against Escherichia coli ATCC 25922 after 20 hrs by microdilution assay. The series is classed as functional. The conditions noted are these: ATCC 25922, 20 h.
Series [5] concerns Staphylococcus aureus. The series can be described thus: Antimicrobial activity against clinical isolates of methicillin-resistant Staphylococcus aureus after 20 hrs by microdilution assay. Format: functional.
Another series deals with Acinetobacter baumannii. The series can be described thus: Antimicrobial activity against Acinetobacter baumannii […] after 20 hrs by microdilution assay. Format: functional.
Series [6] has as its system Staphylococcus aureus. The series can be described thus: Antimicrobial activity against vancomycin-resistant Staphylococcus aureus NARSA VRS10 after 20 hrs by microdilution assay. Format: functional. The settings on record: NARSA VRS10, 20 h.
Series [7] concerns Staphylococcus aureus. The series can be described thus: Antimicrobial activity against glycopeptide-intermediate Staphylococcus aureus NRS1 after 20 hrs by microdilution assay. Format: functional. The conditions noted are these: NRS1, 20 h.
Series [8] relates to Staphylococcus aureus. The series can be described thus: Antimicrobial activity against glycopeptide-intermediate Staphylococcus aureus NRS17 after 20 hrs by microdilution assay. The series is classed as functional. The conditions noted are these: NRS17, 20 h.
Series [9] relates to Staphylococcus aureus. The series can be described thus: Antimicrobial activity against methicillin-resistant Staphylococcus aureus ATCC 43300 after 20 hrs by microdilution assay. The series is classed as functional. The conditions noted are these: ATCC 43300, 20 h.
The nature of series [10]: Cytotoxicity against human HepG2 cells after 24 hrs by MTT assay. The series is classed as cell-based.
The subject of series [11] is Klebsiella pneumoniae. Kind of series: Antimicrobial activity against Klebsiella pneumoniae ATCC 13883 after 20 hrs by microdilution assay. Format: functional. The settings on record: ATCC 13883, 20 h.
Series [12] can be described thus: Cytotoxicity against HEK293 cells after 24 hrs by MTT assay. The settings on record: human. Format: cell-based. For orientation: Tetrazolium dyes change colour on reduction, which living cells bring about.
For a further series, the system named is Enterococcus faecalis. Kind of series: Antimicrobial activity against clinical isolates of high level vancomycin-resistant Enterococcus faecalis after 20 hrs by microdilution assay. The series is classed as functional.
For series [13], the system named is Klebsiella pneumoniae. The series can be described thus: Antimicrobial activity against multidrug resistant Klebsiella pneumoniae ATCC 700603 after 20 hrs by microdilution assay. Format: functional. The conditions noted are these: Klebsiella pneumoniae, 700603, 20 h.
Series [14] deals with Staphylococcus aureus. Kind of series: Antimicrobial activity against methicillin-susceptible Staphylococcus aureus ATCC 25923 after 20 hrs by microdilution assay. Format: functional. The conditions noted are these: ATCC 25923, 20 h.
Series [15] has as its system Staphylococcus aureus. The series can be described thus: Antimicrobial activity against methicillin-susceptible Staphylococcus aureus ATCC 25923 assessed as surface blebs at 16 times MIC after 3 hrs by transmission electron microscopic analysis. The series is classed as functional, organism-based.
For series [16], the system named is Staphylococcus aureus. Kind of series: Antimicrobial activity against methicillin-susceptible Staphylococcus aureus ATCC 25923 assessed as blister appearance on cell surface at 16 times MIC after 3 hrs by transmission electron microscopic analysis. Format: functional, organism-based.

Structures are written as SMILES. Values after ≈ are worked out from the molar mass of the structure shown. Active and inactive are the calls of the source. The calls are words filed in the database; no cut-off is given here.

Take `CCCCCCCCCCC(NC(=O)C(CCCCNC(=O)C(CCCCN)NC(C)=O)NC(=O)C(CCCCN)NC(C)=O)C(N)=O` (centres undefined): the MIC in the series with Staphylococcus aureus [1], in the series on Staphylococcus aureus [2], against Staphylococcus aureus [3], in the series on Pseudomonas aeruginosa, with Streptococcus pneumoniae and in the series with Enterococcus faecium was more than 30 µM each time. The MIC against Klebsiella pneumoniae [4], against Escherichia coli, in the series with Staphylococcus aureus [5], with Acinetobacter baumannii, in the series on Staphylococcus aureus [6] and with Staphylococcus aureus [7] was more than 30 µM throughout. For the same molecule, the MIC against Staphylococcus aureus [8] is more than 30 µM; in the series on Staphylococcus aureus [9], more than 30 µM; against Klebsiella pneumoniae [11] it was more than 30 µM; with Enterococcus faecalis, 30 µM (≈ 20.5 µg/mL); with Klebsiella pneumoniae [13] it was more than 30 µM; against Staphylococcus aureus [14], more than 30 µM. In addition, the CC50 at 24 h in series [10] and in series [12] was more than 15 µM each time.

On to `CCCCCCCCCCC(NC(=O)C(CCCCN)NC(C)=O)C(N)=O` (centres undefined), for which the MIC in the series on Staphylococcus aureus [1], against Staphylococcus aureus [2], in the series on Staphylococcus aureus [3], with Pseudomonas aeruginosa, against Streptococcus pneumoniae and with Enterococcus faecium was more than 30 µM in each case. Besides, the minimal inhibitory concentration (MIC) with Klebsiella pneumoniae [4], against Escherichia coli, in the series with Staphylococcus aureus [5], against Acinetobacter baumannii, against Staphylococcus aureus [6] and in the series on Staphylococcus aureus [7] was more than 30 µM in each case. Also, the MIC is more than 30 µM with Staphylococcus aureus [8]; more than 30 µM in the series on Staphylococcus aureus [9]; more than 30 µM with Klebsiella pneumoniae [11]; 30 µM (≈ 11.5 µg/mL) in the series with Enterococcus faecalis; more than 30 µM in the series with Klebsiella pneumoniae [13]; more than 30 µM in the series on Staphylococcus aureus [14]. The CC50 at 24 h in [10] and in [12] was more than 15 µM each time.

Take `CN[C@@H](CC(C)C)C(=O)N[C@H]1C(=O)N[C@@H](CC(N)=O)C(=O)N[C@H]2C(=O)N[C@H]3C(=O)N[C@H](C(=O)N[C@@H](C(=O)O)c4cc(O)cc(O)c4-c4cc3ccc4O)[C@H](O)c3ccc(c(Cl)c3)Oc3cc2cc(c3O[C@H]2O[C@@H](CO)[C@H](O)[C@@H](O)[C@@H]2O[C@@H]2C[C@@](C)(N)[C@@H](O)[C@@H](C)O2)Oc2ccc(cc2Cl)[C@H]1O`: the minimal inhibitory concentration (MIC) against Staphylococcus aureus [1] was more than 44 µM; in the series on Staphylococcus aureus [2], more than 44 µM; with Staphylococcus aureus [3] it was 1 µM (≈ 1.45 µg/mL); in the series with Streptococcus pneumoniae, 0.7 µM (≈ 1.01 µg/mL); against Enterococcus faecium, more than 44 µM; in the series with Staphylococcus aureus [5], 5.5 µM (≈ 7.97 µg/mL). Also, the MIC in the series with Staphylococcus aureus [6] is more than 44 µM; against Staphylococcus aureus [7], 1 µM (≈ 1.45 µg/mL); in the series with Staphylococcus aureus [8], 2.8 µM (≈ 4.06 µg/mL); with Staphylococcus aureus [9], 0.6 µM (≈ 0.87 µg/mL); in the series with Enterococcus faecalis, more than 44 µM; with Staphylococcus aureus [14], 0.7 µM (≈ 1.01 µg/mL). Besides, the outcome in the series with Staphylococcus aureus [15] and with Staphylococcus aureus [16] was Active.

Usually MIC stands for the lowest concentration found to suppress growth. A higher MIC goes with weaker potency. As usually defined, the CC50 is the concentration giving 50% cytotoxicity.
